Experimental data as given in US20230391739A1, “ARYL DERIVATIVES FOR TREATING TRPM3 MEDIATED DISORDERS” (Katholieke Universiteit Leuven, priority 2020, published 2023).

Each compound was assayed against T1, mouse TRPM3α2 (mTRPM3) ion channel (Mus musculus, UniProt J9SQF3) (assay: TRPM3 ion channel driven Ca2+ uptake, Fluo-4 AM assay, PS-stimulated (mTRPM3)). Details: TRPM3 overexpressing flip-in HEK293 cells stimulated with Pregnenolone sulfate (PS) 50 μM, activity ranges A, B, C.
T1 construct: expressed in transfected cells; host or cells: flip-in HEK293
T1 sequence (J9SQF3 1-1709 isoform J9SQF3-12): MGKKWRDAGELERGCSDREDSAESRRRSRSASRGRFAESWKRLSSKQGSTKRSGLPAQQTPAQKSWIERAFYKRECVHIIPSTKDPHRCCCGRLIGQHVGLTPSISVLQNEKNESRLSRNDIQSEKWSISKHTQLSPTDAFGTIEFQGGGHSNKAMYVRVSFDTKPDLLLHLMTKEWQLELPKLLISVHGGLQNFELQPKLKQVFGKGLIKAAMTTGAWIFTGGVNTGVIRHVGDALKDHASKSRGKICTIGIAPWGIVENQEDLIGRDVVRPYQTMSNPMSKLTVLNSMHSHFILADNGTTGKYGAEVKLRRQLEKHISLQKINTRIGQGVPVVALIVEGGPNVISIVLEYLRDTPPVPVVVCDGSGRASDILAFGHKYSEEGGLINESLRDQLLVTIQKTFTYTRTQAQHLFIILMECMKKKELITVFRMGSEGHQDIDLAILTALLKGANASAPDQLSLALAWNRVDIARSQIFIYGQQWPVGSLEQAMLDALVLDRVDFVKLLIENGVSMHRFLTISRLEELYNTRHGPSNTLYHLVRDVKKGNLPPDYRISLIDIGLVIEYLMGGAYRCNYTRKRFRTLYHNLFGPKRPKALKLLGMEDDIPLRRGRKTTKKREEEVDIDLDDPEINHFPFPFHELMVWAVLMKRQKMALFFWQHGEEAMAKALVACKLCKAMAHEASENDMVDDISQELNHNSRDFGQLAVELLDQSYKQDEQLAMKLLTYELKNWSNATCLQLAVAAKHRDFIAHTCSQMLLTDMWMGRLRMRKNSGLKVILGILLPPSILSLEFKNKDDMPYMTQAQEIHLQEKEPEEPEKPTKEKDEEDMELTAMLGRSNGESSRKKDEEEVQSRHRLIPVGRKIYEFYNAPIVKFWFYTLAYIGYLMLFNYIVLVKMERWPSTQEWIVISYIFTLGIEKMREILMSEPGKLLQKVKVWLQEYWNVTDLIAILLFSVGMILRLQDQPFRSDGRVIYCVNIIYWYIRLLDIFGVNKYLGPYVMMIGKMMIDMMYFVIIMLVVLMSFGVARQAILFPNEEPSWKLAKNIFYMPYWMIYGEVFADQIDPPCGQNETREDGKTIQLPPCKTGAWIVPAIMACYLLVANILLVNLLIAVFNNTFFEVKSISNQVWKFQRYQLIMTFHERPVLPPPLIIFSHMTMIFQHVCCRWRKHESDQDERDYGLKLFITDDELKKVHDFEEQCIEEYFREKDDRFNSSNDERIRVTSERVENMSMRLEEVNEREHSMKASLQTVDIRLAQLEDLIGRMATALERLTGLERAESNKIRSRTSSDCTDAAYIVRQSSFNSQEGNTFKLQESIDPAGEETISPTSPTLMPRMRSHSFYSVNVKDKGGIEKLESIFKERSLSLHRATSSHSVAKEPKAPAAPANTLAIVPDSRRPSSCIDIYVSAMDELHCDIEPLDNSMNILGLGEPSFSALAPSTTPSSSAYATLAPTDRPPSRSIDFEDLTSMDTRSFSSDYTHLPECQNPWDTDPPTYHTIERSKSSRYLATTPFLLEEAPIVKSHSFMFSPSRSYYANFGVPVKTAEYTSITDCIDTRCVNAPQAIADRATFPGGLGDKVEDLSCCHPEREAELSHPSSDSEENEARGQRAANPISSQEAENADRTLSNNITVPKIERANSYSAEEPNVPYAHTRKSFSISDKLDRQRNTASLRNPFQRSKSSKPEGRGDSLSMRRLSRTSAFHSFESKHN
Assay type: cell-based
Summary of the method: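 Flp-In HEK293 cells overexpressing mTRPM3α2 were added, in Ca²⁺-free Krebs, to wells already holding compound and 50 μM pregnenolone sulfate in Ca²⁺-containing Krebs. Fluo-4 AM fluorescence (ex 485/em 535 nm) was read immediately. Percent inhibition was computed from RFU relative to PS/vehicle wells and a positive-control inhibitor.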

IC50 [µM]	Compound
> 20	Cc1oc2ccc(OCc3ccccc3)cc2c1C(=O)N1CCCCC1 [Cpd 047, (5-(benzyloxy)-2-methylbenzofuran-3-yl)(piperidin-1-yl)methanone]
< 1	Cc1oc2ccc(OCc3ccccc3C(F)(F)F)cc2c1C(=O)NC1CNCC1(F)F (centres unmarked) [Cpd 240, N-(4,4-difluoropyrrolidin-3-yl)-2-methyl-5-((2-(trifluoromethyl)benzyl)oxy)benzofuran-3-carboxamide]
1 to 20	Cc1oc2ccc(OCc3ccccc3)cc2c1C(=O)NC1CCN(C(=O)OC(C)(C)C)C(C)C1 (stereo not drawn) [Cpd 252, tert-butyl cis-4-(5-(benzyloxy)-2-methylbenzofuran-3-carboxamido)-2-methylpiperidine-1-carboxylate]
< 1	Cc1oc2ccc(OCc3ccccc3)cc2c1C(=O)NC1CNCC1(F)F (centres unmarked) [Cpd 137, 5-(benzyloxy)-N-(4,4-difluoropyrrolidin-3-yl)-2-methylbenzofuran-3-carboxamide]
< 1	Cc1oc2ccc(OCc3ccccc3F)cc2c1C(=O)NC1(CO)CCC1 [Cpd 324, 5-((2-fluorobenzyl)oxy)-N-(1-(hydroxymethyl)cyclobutyl)-2-methylbenzofuran-3-carboxamide]
1 to 20	COCCCNC(=O)c1c(C)oc2ccc(OCc3ccccc3)cc12 [Cpd 056, 5-(benzyloxy)-N-(3-methoxypropyl)-2-methylbenzofuran-3-carboxamide]
< 1	Cc1oc2ccc(OCc3c(F)cccc3F)cc2c1C(=O)N[C@H]1CCNC1 [Cpd 136, (S)-5-((2,6-difluorobenzyl)oxy)-2-methyl-N-(pyrrolidin-3-yl)benzofuran-3-carboxamide]
> 20	Cc1oc2c(C#N)cc(OCc3ccccc3)cc2c1C(=O)NC1CNCC1(F)F (single isomer, unassigned) [Cpd 305-En 1, 5-(benzyloxy)-7-cyano-N-(4,4-difluoropyrrolidin-3-yl)-2-methylbenzofuran-3-carboxamide]
< 1	Cc1oc2ccc(OCc3ccccc3)cc2c1C(=O)NC1(CO)CCOCC1 [Cpd 167, 5-(benzyloxy)-N-(4-(hydroxymethyl)tetrahydro-2H-pyran-4-yl)-2-methylbenzofuran-3-carboxamide]
< 1	Cc1oc2ccc(OCc3ccccc3)cc2c1C(=O)Nc1ccn(C)n1 [Cpd 064, 5-(benzyloxy)-2-methyl-N-(1-methyl-1H-pyrazol-3-yl)benzofuran-3-carboxamide]
1 to 20	Cc1oc2ccc(OCc3ccccc3S(C)(=O)=O)cc2c1C(=O)NC1(CO)CCOCC1 [Cpd 332, N-(4-(hydroxymethyl)tetrahydro-2H-pyran-4-yl)-2-methyl-5-((2-(methylsulfonyl)benzyl)oxy)benzofuran-3-carboxamide]
< 1	COc1cccc(COc2ccc3oc(C)c(C(=O)O)c3c2)c1 [Cpd 012, 5-((3-methoxybenzyl)oxy)-2-methylbenzofuran-3-carboxylic acid]
1 to 20	Cc1oc2ccc(OCc3ccc(Cl)cc3)cc2c1C(=O)O [Cpd 016, 5-((4-chlorobenzyl)oxy)-2-methylbenzofuran-3-carboxylic acid]
< 1	Cc1oc2ccc(OCc3ccccc3)cc2c1C(=O)N[C@@H]1CCN(C)C1 [Cpd 080, (R)-5-(benzyloxy)-2-methyl-N-(1-methylpyrrolidin-3-yl)benzofuran-3-carboxamide]
< 1	Cc1oc2ccc(OCc3ccccc3)cc2c1C(=O)N[C@H]1CCNC1=O [Cpd 069, (S)-5-(benzyloxy)-2-methyl-N-(2-oxopyrrolidin-3-yl)benzofuran-3-carboxamide]
1 to 20	Cc1oc2ccc(OCc3ccccc3)cc2c1C(=O)N[C@H]1CCCN(C2COC2)C1 [Cpd 206, (S)-5-(benzyloxy)-2-methyl-N-(1-(oxetan-3-yl)piperidin-3-yl)benzofuran-3-carboxamide]
1 to 20	Cc1oc2c(F)cc(OCc3ccccc3)cc2c1C(=O)NC1CNCC1(F)F (single isomer, unassigned) [Cpd 306-En 2]
1 to 20	Cc1oc2ccc(OCc3ccccc3)cc2c1C(=O)NC1CCNC(=O)C1 (centres unmarked) [Cpd 108, 5-(benzyloxy)-2-methyl-N-(2-oxopiperidin-4-yl)benzofuran-3-carboxamide]
1 to 20	Cc1oc2ccc(OCc3ccccc3)cc2c1C(=O)N[C@H]1CC[C@H](N)CC1 [Cpd 120, N-(trans-4-aminocyclohexyl)-5-(benzyloxy)-2-methylbenzofuran-3-carboxamide]
< 1	Cc1ccccc1COc1ccc2oc(C)c(C(=O)O)c2c1 [Cpd 003, 2-methyl-5-((2-methylbenzyl)oxy)benzofuran-3-carboxylic acid]

IC50 [µM]	Compound
< 1	Cc1oc2ccc(OCc3ccccc3)cc2c1C(=O)N[C@@H]1CCCN(C2COC2)C1 [Cpd 207, (R)-5-(benzyloxy)-2-methyl-N-(1-(oxetan-3-yl)piperidin-3-yl)benzofuran-3-carboxamide]
< 1	Cc1oc2ccc(OC(CN(C)C)c3ccccc3)cc2c1C(=O)N[C@@H](CO)C(N)=O (single isomer, unassigned) [Cpd 347-En 2]
< 1	Cc1oc2ccc(OCc3ccccc3F)cc2c1C(=O)NC1(C(N)=O)CC1 [Cpd 326, N-(1-carbamoylcyclopropyl)-5-((2-fluorobenzyl)oxy)-2-methylbenzofuran-3-carboxamide]
1 to 20	COCCNC(=O)c1c(C)oc2ccc(OCc3ccccc3)cc12 [Cpd 044, 5-(benzyloxy)-N-(2-methoxyethyl)-2-methylbenzofuran-3-carboxamide]
1 to 20	Cc1oc2ccc(OCc3ccccc3)c(F)c2c1C(=O)NC1CNCC1(F)F (single isomer, unassigned) [Cpd 298-En 2, 5-(benzyloxy)-N-(4,4-difluoropyrrolidin-3-yl)-4-fluoro-2-methylbenzofuran-3-carboxamide]
> 20	Cc1oc2ccc(OCc3ccccc3)cc2c1C(=O)Nc1cccnn1 [Cpd 062, 5-(benzyloxy)-2-methyl-N-(pyridazin-3-yl)benzofuran-3-carboxamide]
< 1	COc1ccccc1COc1ccc2oc(C)c(C(=O)N[C@@H](CO)C(N)=O)c2c1 [Cpd 339, (S)—N-(1-Amino-3-hydroxy-1-oxopropan-2-yl)-5-((2-methoxybenzyl)oxy)-2-methylbenzofuran-3-carboxamide]
< 1	Cc1oc2ccc(OC(CO)c3ccccc3)cc2c1C(=O)NC1(CO)CCOCC1 (single isomer, unassigned) [Cpd 317-En 1, 5-(2-hydroxy-1-phenylethoxy)-N-(4-(hydroxymethyl)tetrahydro-2H-pyran-4-yl)-2-methylbenzofuran-3-carboxamide]
1 to 20	Cc1oc2ccc(OCc3ccccc3)cc2c1C(=O)N[C@H]1C[C@H]2CN(C)CCN2C1 [Cpd 205, 5-(benzyloxy)-2-methyl-N-((7S,8aS)-2-methyloctahydropyrrolo[1,2-a]pyrazin-7-yl)benzofuran-3-carboxamide]
< 1	Cc1oc2ccc(OCc3cccc(F)c3F)cc2c1C(=O)NC1CNCC1(F)F (centres unmarked) [Cpd 211, 5-((2,3-difluorobenzyl)oxy)-N-(4,4-difluoropyrrolidin-3-yl)-2-methylbenzofuran-3-carboxamide]
< 1	Cc1oc2ccc(OCc3ccccc3)c(F)c2c1C(=O)NC1CNCC1(F)F (single isomer, unassigned) [Cpd 298-En 1, 5-(benzyloxy)-N-(4,4-difluoropyrrolidin-3-yl)-4-fluoro-2-methylbenzofuran-3-carboxamide]
< 1	Cc1oc2ccc(OCc3c(F)cccc3F)cc2c1C(=O)NC1CCNC1=O (centres unmarked) [Cpd 172, 5-((2,6-difluorobenzyl)oxy)-2-methyl-N-(2-oxopyrrolidin-3-yl)benzofuran-3-carboxamide]
< 1	Cc1oc2ccc(OCc3ccccc3F)cc2c1C(=O)NC(C)(C)CO [Cpd 313, 5-((2-fluorobenzyl)oxy)-N-(1-hydroxy-2-methylpropan-2-yl)-2-methylbenzofuran-3-carboxamide]
> 20	CCOC(=O)c1coc2ccc(OCc3ccccc3)cc12 [Cpd 029, ethyl 5-(benzyloxy)benzofuran-3-carboxylate]
1 to 20	Cc1cc2oc(C)c(C(=O)NC3CNCC3(F)F)c2cc1OCc1ccccc1 (single isomer, unassigned) [Cpd 303-En 1, 5-(benzyloxy)-N-(4,4-difluoropyrrolidin-3-yl)-2,6-dimethylbenzofuran-3-carboxamide]
< 1	Cc1oc2ccc(OCc3ccccc3F)cc2c1C(=O)NC(C)(C)C(N)=O [Cpd 315, N-(1-amino-2-methyl-1-oxopropan-2-yl)-5-((2-fluorobenzyl)oxy)-2-methylbenzofuran-3-carboxamide]
1 to 20	Cc1oc2ccc(OC(CO)c3ccccc3)cc2c1C(=O)NC1(CO)CCOCC1 (single isomer, unassigned) [Cpd 317-En 2, 5-(2-hydroxy-1-phenylethoxy)-N-(4-(hydroxymethyl)tetrahydro-2H-pyran-4-yl)-2-methylbenzofuran-3-carboxamide]
< 1	Cc1oc2ccc(OCc3ccccc3)cc2c1C(=O)NC1CCOCC1 [Cpd 088, 5-(benzyloxy)-2-methyl-N-(tetrahydro-2H-pyran-4-yl)benzofuran-3-carboxamide]
1 to 20	Cc1oc2ccc(OCc3ccccc3)cc2c1C(=O)NCC1CCOCC1 [Cpd 122, 5-(benzyloxy)-2-methyl-N-((tetrahydro-2H-pyran-4-yl)methyl)benzofuran-3-carboxamide]
< 1	Cc1oc2ccc(OCc3ccccc3)cc2c1C(=O)NC1CCC(O)CC1 (centres unmarked) [Cpd 123, 5-(benzyloxy)-N-(4-hydroxycyclohexyl)-2-methylbenzofuran-3-carboxamide]

Compound	IC50 [µM]
Cc1oc2ccc(OCc3ccccc3)cc2c1C(=O)N[C@H]1C[C@H]2CC[C@@H](C1)N2C [Cpd 183, 5-(benzyloxy)-2-methyl-N-((1R,3r,5S)-8-methyl-8-azabicyclo[3.2.1]octan-3-yl)benzofuran-3-carboxamide]	< 1
